From US12281079B2, “Quinoline derivatives, processes for their preparation and uses thereof for the treatment of cancer” (Lead Discovery Center GmbH, priority 2019, dated 2025) come the findings set out here.

Experiment [1] concerns the target mitochondrial RNA polymerase (POLRMT) (Mus musculus, UniProt Q8BKF1). In words: Homogeneous TR-FRET assay for mitochondrial transcription activity. The format is biochemical. The following applies: homogeneous TR-FRET assay according to Example 4. In a few lines: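 Read-out is TR-FRET (ex 340, em 665 nm) from two adjacent labelled DNA probes annealing to the 407 bp transcript after EDTA/700 mM NaCl stop. Reaction: murine POLRMT, TFAM, TFB2M and LSP plasmid template, compound 10 μM or serial dilution, 10 min rt preincubation, 500 μM each nucleotide, 2 h rt.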

Experiment [2] deals with mitochondrial transcription (7S RNA) in HeLa cells. In words: Quantitative real time-PCR assay of inhibition of mitochondrial transcription (7S RNA) in HeLa cells. The format is cell-based. The conditions noted are these: Homo sapiens, 4 h compound incubation, according to Example 5, read-out: cellular qPCR assay. In outline:
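HeLa cells were exposed to compound dilution series or DMSO for 4 h, then RNA was extracted, normalized and reverse-transcribed. TaqMan qRT-PCR measured short-lived 7S RNA, with POLRMT as nuclear-transcription readout and TBP as housekeeping gene. Biological triplicates were analyzed by ΔΔCt and reported as Rq % (2−ΔΔCt).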

Chain of mitochondrial RNA polymerase (POLRMT) (Q8BKF1 42-1207): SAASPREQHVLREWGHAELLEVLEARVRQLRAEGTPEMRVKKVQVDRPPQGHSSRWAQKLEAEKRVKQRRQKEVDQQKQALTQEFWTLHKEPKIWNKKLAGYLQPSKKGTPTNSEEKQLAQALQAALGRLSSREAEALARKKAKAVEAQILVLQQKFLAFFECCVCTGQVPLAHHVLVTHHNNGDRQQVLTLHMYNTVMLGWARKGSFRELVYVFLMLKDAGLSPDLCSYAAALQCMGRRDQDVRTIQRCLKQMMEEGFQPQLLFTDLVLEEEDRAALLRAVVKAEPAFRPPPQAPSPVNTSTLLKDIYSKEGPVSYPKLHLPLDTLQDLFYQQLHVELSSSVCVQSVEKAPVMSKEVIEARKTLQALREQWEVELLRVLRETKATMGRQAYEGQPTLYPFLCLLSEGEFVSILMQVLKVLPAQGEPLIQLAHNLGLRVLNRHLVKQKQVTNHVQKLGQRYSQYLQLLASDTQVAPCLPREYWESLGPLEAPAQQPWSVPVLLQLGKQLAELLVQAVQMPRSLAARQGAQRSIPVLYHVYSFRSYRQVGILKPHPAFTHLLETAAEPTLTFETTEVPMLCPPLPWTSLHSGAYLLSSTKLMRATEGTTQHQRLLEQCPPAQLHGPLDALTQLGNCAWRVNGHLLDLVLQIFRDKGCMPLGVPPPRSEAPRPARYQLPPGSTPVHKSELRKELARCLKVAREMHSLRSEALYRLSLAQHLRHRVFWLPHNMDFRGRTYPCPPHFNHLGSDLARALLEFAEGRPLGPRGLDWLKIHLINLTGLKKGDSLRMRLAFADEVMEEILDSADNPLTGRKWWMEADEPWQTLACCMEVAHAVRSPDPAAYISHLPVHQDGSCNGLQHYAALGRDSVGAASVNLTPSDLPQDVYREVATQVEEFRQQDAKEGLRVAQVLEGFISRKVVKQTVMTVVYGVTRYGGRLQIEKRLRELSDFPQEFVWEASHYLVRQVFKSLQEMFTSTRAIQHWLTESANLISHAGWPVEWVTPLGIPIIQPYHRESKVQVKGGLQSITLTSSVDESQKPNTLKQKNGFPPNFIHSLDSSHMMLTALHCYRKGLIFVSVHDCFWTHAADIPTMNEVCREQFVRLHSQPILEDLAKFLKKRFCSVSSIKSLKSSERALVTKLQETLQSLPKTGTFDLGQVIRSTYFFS

Take `Cc1cc(F)cc(C)c1-c1ccnc2cc(O[C@H](C)C(=O)N3CCCC(C4(C(=O)O)CC4)C3)ccc12` (mixture of isomers) [Compound 182, 1-[1-[rac-(2R)-2-[[4-(4-fluoro-2,6-dimethyl-phenyl)-7-quinolyl]oxy]propanoyl]-3-piperidyl]cyclopropanecarboxylic acid]: the IC50 in experiment [1] is less than 20 nM; in experiment [2], less than 10 nM.

As for `C[C@@H](Oc1ccc2c(-c3c(Cl)cc(F)cc3Cl)ccnc2c1)C(=O)N1CCC2(CCNC2=O)CC1` [Compound 202, 8-[(2R)-2-[[4-(2,6-dichloro-4-fluoro-phenyl)-7-quinolyl]oxy]propanoyl]-2,8-diazaspiro[4.5]decan-1-one], the IC50 in experiment [1] lay in the range of 100 to 1000 nM; in experiment [2], 10 to 50 nM.
